According to US20100317607A1, “USE OF COMPOUNDS FOR PREPARING ANTI-TUBERCULOSIS AGENTS” (INFECTIOUS DISEASE RESEARCH INSTITUTE, priority 2007, published 2010):
Values after ≈ are worked out from the molar mass of the structure shown. Counter-ions that a name gives are not always drawn. Like-named read-outs stand apart in the source and are kept apart here.

Assays:
[1] = tested on: H37Rv strain of M. tuberculosis; experiment: Alamar Blue Susceptibility Test (MABA); assay type: cell-based; conditions: for MIC: Mycobacterium tuberculosis, read-out: MABA (TB growth inhibition, colourimetric assay)
[2] = tested on: non replicating phase of M. tuberculosis (H37Rv with a plasmid with an acetimidase promoter driving a luciferase gene); experiment: microbe, parasite or virus in culture; assay type: cell-based; conditions: non replicating M. tuberculosis H37Rv luciferase strain; for MIC: Mycobacterium tuberculosis, read-out: LORA (TB growth inhibition, MIC)
[3] = H37Rv strain of M. tuberculosis, Alamar Blue

Row | Compound | MIC [1, 3] [µM] | MIC [2] [µM] | further results
1 | c1ccc(CNc2nc(N3CCCCC3)nc3ccccc23)cc1 [Compound 4, N-Benzyl-2-(piperidin-1-yl)quinazolin-4-amine] | < 10 | 10 to 50 (≈ 3.18 to 15.9 µg/mL) | 
2 | c1ccc(CNc2nc(N3CCOCC3)nc3ccccc23)cc1 [Compound 5, N-Benzyl-2-morpholinoquinazolin-4-amine] | 50 to 128 (≈ 16 to 41 µg/mL) | 50 to 128 (≈ 16 to 41 µg/mL) | 
3 | CN1CCN(c2nc(NCc3ccccc3)c3ccccc3n2)CC1 [Compound 6, N-Benzyl-2-(4-methylpiperazin-1-yl)quinazolin-4-amine hydrochloride] | 50 to 128 | 50 to 128 | 
4 | CC(Nc1nc(N2CCNCC2)nc2ccccc12)c1ccccc1 (stereo not shown) [Compound 8, N-(1-Phenylethyl)-2-(piperazin-1-yl)quinazolin-4-amine] | 50 to 128 (≈ 16.7 to 42.7 µg/mL) | 10 to 50 (≈ 3.33 to 16.7 µg/mL) | 
5 | CC(Nc1nc(N2CCOCC2)nc2ccccc12)c1ccccc1 (stereo not shown) [Compound 9, 2-Morpholino-N-(1-phenylethyl)quinazolin-4-amine] | 50 to 128 (≈ 16.7 to 42.8 µg/mL) | 50 to 128 (≈ 16.7 to 42.8 µg/mL) | 
6 | CC(Nc1nc(N2CCN(S(C)(=O)=O)CC2)nc2ccccc12)c1ccccc1 (stereo not shown) [Compound 10, 2-(4-(Methylsulfonyl)piperazin-1-yl)-N-(1-phenylethyl)quinazolin-4-amine] | 50 to 128 (≈ 20.6 to 52.7 µg/mL) | 10 to 50 (≈ 4.12 to 20.6 µg/mL) | 
7 | CC(Nc1nc(N2CCCCC2)nc2ccccc12)c1ccccc1 (stereo not shown) [Compound 12, N-(1-Phenylethyl)-2-(piperidin-1-yl)quinazolin-4-amine] | 10 to 50 (≈ 3.32 to 16.6 µg/mL) | 10 to 50 (≈ 3.32 to 16.6 µg/mL) | 
8 | c1coc(CNc2nc(N3CCCCC3)nc3ccccc23)c1 [Compound 13, N-(Furan-2-ylmethyl)-2-(piperidin-1-yl)quinazolin-4-amine] | < 10 | 10 to 50 (≈ 3.08 to 15.4 µg/mL) | 
9 | CC(Nc1nc(N2CCCC2)nc2ccccc12)c1ccccc1 (stereo not shown) [Compound 14, N-(1-Phenylethyl)-2-(pyrrolidin-1-yl)quinazolin-4-amine] | 10 to 50 (≈ 3.18 to 15.9 µg/mL) | 10 to 50 (≈ 3.18 to 15.9 µg/mL) | 
10 | CC(Nc1nc(N2CCN(S(=O)(=O)c3ccccc3)CC2)nc2ccccc12)c1ccccc1 (stereo not shown) [Compound 15, N-(1-Phenylethyl)-2-(4-(phenylsulfonyl)piperazin-1-yl)quinazolin-4-amine] | 50 to 128 (≈ 23.7 to 60.6 µg/mL) |  | LORA (TB growth inhibition, MIC) [2]: −
11 | c1ccc2c(NC3C4CC5CC(C4)CC3C5)nc(N3CCOCC3)nc2c1 (stereo not shown) [Compound 16, N-(2′-Adamantyl)-2-morpholinoquinazolin-4-amine] |  |  | MABA (TB growth inhibition, colourimetric assay) [1, 3]: +++ (10-50 μM=+++); LORA (TB growth inhibition, MIC) [2]: +++ (10-50 μM=+++)
12 | COc1cc2nc(N3CCOCC3)nc(NCc3ccccc3)c2cc1OC [Compound 17, N-Benzyl-6,7-dimethoxy-2-morpholinoquinazolin-4-amine] | 50 to 128 (≈ 19 to 48.7 µg/mL) |  | LORA (TB growth inhibition, MIC) [2]: −
13 | c1ccc(CNc2nc(NCc3ccccc3)c3ccccc3n2)cc1 [Compound 18, N^2,N^4-Dibenzylquinazoline-2,4-diamine] | 10 to 50 (≈ 3.4 to 17 µg/mL) | 10 to 50 (≈ 3.4 to 17 µg/mL) | 
14 | c1ccc2c(NC3C4CC5CC(C4)CC3C5)nc(N3CCOCC3)nc2c1 (stereo not shown) [Compound 19, 2-Morpholino-N-(1-[2′-adamantyl])quinazolin-4-amine] |  |  | MABA (TB growth inhibition, colourimetric assay) [1, 3]: +++ (10-50 μM=+++); LORA (TB growth inhibition, MIC) [2]: +++ (10-50 μM=+++)
15 | Cn1ncc2c(NCc3ccccc3)nc(N3CCCC3)nc21 [Compound 20, N-Benzyl-1-methyl-6-(pyrrolidin-1-yl)-1H-pyrazolo[3,4-d]pyrimidin-4-amine] | 50 to 128 (≈ 15.4 to 39.5 µg/mL) |  | LORA (TB growth inhibition, MIC) [2]: −
16 | CC(Nc1nc(N2CCN(C(=O)C3CCCC3)CC2)nc2ccccc12)c1ccccc1 (stereo not shown) [Compound 21, Cyclopentyl(4-(4-(1-phenylethylamino)quinazolin-2-yl)piperazin-1-yl)methanone] | 10 to 50 (≈ 4.3 to 21.5 µg/mL) | 10 to 50 (≈ 4.3 to 21.5 µg/mL) | 
17 | c1ccc(CNc2nc(N3CCCC3)nc3ccccc23)cc1 [Compound 22, N-Benzyl-2-(pyrrolidin-1-yl)quinazolin-4-amine] | < 10 | 10 to 50 (≈ 3.04 to 15.2 µg/mL) | 
18 | c1ccc(CNc2nc(N3CCCCC3)c3ccccc3n2)cc1 [Compound 24, N-Benzyl-4-(piperidin-1-yl)quinazolin-2-amine] | 10 to 50 (≈ 3.18 to 15.9 µg/mL) | 10 to 50 (≈ 3.18 to 15.9 µg/mL) | 
19 | c1ccc(CNc2nc(N3CCc4ccccc4C3)nc3ccccc23)cc1 [Compound 30, N-Benzyl-2-(3,4-dihydroisoquinolin-2(1H)-yl)quinazolin-4-amine] | < 10 | < 10 | 
20 | c1ccc(CCNc2nc(N3CCCCC3)nc3ccccc23)cc1 [Compound 33, N-Phenethyl-2-(piperidin-1-yl)quinazolin-4-amine] | < 10 | 10 to 50 (≈ 3.32 to 16.6 µg/mL) | 
21 | Clc1ccc(CNc2nc(N3CCCCC3)nc3ccccc23)cc1 [Compound 34, N-(4-Chlorobenzyl)-2-(piperidin-1-yl)quinazolin-4-amine] | < 10 | 10 to 50 (≈ 3.53 to 17.6 µg/mL) | 
22 | CN(Cc1ccccc1)c1nc(N2CCCCC2)nc2ccccc12 [Compound 35, N-Benzyl-N-methyl-2-(piperidin-1-yl)quinazolin-4-amine] | < 10 | < 10 | 

Row | Compound | MIC [1, 3] [µM] | MIC [2] [µM] | further results
23 | c1ccc2c(c1)CCN(c1nc(N3CCCCC3)nc3ccccc13)C2 [Compound 36, 4-(3,4-Dihydroisoquinolin-2(1H)-yl)-2-(piperidin-1-yl)quinazoline] | < 10 | 10 to 50 (≈ 3.44 to 17.2 µg/mL) | 
24 | c1ccc2c(NCc3ccsc3)nc(N3CCCCC3)nc2c1 [Compound 191, 2-(Piperidin-1-yl)-N-(thiophen-3-ylmethyl)quinazolin-4-amine] | 10 to 50 (≈ 3.24 to 16.2 µg/mL) |  | 
25 | COc1cc2c(cc1OC)CN(c1nc(N3CCCCC3)nc3ccccc13)CC2 [Compound 192, 4-(6,7-Dimethoxy-3,4-dihydroisoquinolin-2(1H)-yl)-2-(piperidin-1-yl)quinazoline] | 10 to 50 (≈ 4.05 to 20.2 µg/mL) |  | 
26 | Fc1ccc(CNc2nc(N3CCc4ccc(Br)cc4C3)nc3ccccc23)cc1 [Compound 193, 2-(7-Bromo-3,4-dihydroisoquinolin-2(1H)-yl)-N-(4-fluorobenzyl)quinazolin-4-amine] | 10 to 50 (≈ 4.63 to 23.2 µg/mL) |  | 
27 | Clc1ccc(CNc2nc(N3CCCCC3)nc3ccccc23)cn1 [Compound 194, N-((6-Chloropyridin-3-yl)methyl)-2-(piperidin-1-yl)quinazolin-4-amine hydrochloride] |  |  | MIC ([1]; H37RV): 10 to 50 µM
28 | c1ccc2c(CNc3nc(N4CCCCC4)nc4ccccc34)ccnc2c1 [Compound 195, 2-(Piperidin-1-yl)-N-(quinolin-4-ylmethyl)quinazolin-4-amine] | 10 to 50 (≈ 3.69 to 18.5 µg/mL) |  | 
29 | FC(F)(F)c1ccc(CNc2nc(N3CCCCC3)nc3ccccc23)cn1 [Compound 196, 2-(Piperidin-1-yl)-N-((6-(trifluoromethyl)pyridin-3-yl)methyl)quinazolin-4-amine hydrochloride] | 10 to 50 |  | 
30 | c1ccc(CNc2nc(N3CCCCCC3)nc3ccccc23)cc1 [Compound 197, 2-(Azepan-1-yl)-N-benzylquinazolin-4-amine] | 10 to 50 (≈ 3.32 to 16.6 µg/mL) |  | 
31 | OC[C@@H]1CCCN1c1nc(NCc2ccc(F)cc2)c2ccccc2n1 [Compound 198, (S)-(1-(4-(4-Fluorobenzylamino)quinazolin-2-yl)pyrrolidin-2-yl)methanol] | 50 to 128 (≈ 17.6 to 45.1 µg/mL) |  | 
32 | COC[C@@H]1CCCN1c1nc(NCc2ccc(F)cc2)c2ccccc2n1 [Compound 199, (S)—N-(4-Fluorobenzyl)-2-(2-(methoxymethyl)pyrrolidin-1-yl)quinazolin-4-amine] | 10 to 50 (≈ 3.66 to 18.3 µg/mL) |  | 
33 | COC(=O)[C@@H]1CCCN1c1nc(NCc2ccc(F)cc2)c2ccccc2n1 [Compound 200, (S)-Methyl 1-(4-(4-fluorobenzylamino)quinazolin-2-yl)pyrrolidine-2-carboxylate] | 50 to 128 (≈ 19 to 48.7 µg/mL) |  | 
34 | Fc1ccc(CNc2nc(N3CCN(Cc4ccccc4)CC3)nc3ccccc23)cc1 [Compound 201, 2-(4-Benzylpiperazin-1-yl)-N-(4-fluorobenzyl)quinazolin-4-amine] | 10 to 50 (≈ 4.28 to 21.4 µg/mL) |  | 
35 | O=C(C1CC1)N1CCN(c2nc(NCc3ccc(F)cc3)c3ccccc3n2)CC1 [Compound 202, Cyclopropyl(4-(4-(4-fluorobenzylamino)quinazolin-2-yl)piperazin-1-yl)methanone hydrochloride] | 50 to 128 |  | 
36 | O=C(C1CCCCC1)N1CCN(c2nc(NCc3ccc(F)cc3)c3ccccc3n2)CC1 [Compound 203, Cyclohexyl(4-(4-(4-fluorobenzylamino)quinazolin-2-yl)piperazin-1-yl)methanone] | 10 to 50 (≈ 4.48 to 22.4 µg/mL) |  | 
37 | O=C(c1ccccc1)N1CCN(c2nc(NCc3ccc(F)cc3)c3ccccc3n2)CC1 [Compound 204, (4-(4-(4-Fluorobenzylamino)quinazolin-2-yl)piperazin-1-yl)(phenyl)methanone] | 50 to 128 (≈ 22.1 to 56.5 µg/mL) |  | 
38 | O=C(N1CCCC1)N1CCN(c2nc(NCc3ccc(F)cc3)c3ccccc3n2)CC1 [Compound 205, (4-(4-(4-Fluorobenzylamino)quinazolin-2-yl)piperazin-1-yl)(pyrrolidin-1-yl)methanone hydrochloride] | 50 to 128 |  | 
39 | CCOC(=O)CNc1nc(NCc2ccc(F)cc2)c2ccccc2n1 [Compound 206, Ethyl 2-(4-(4-fluorobenzylamino)quinazolin-2-ylamino)acetate hydrochloride] | 50 to 128 |  | 
40 | COCCNc1nc(NCc2ccc(F)cc2)c2ccccc2n1 [Compound 207, N^4-(4-Fluorobenzyl)-N^2-(2-methoxyethyl)quinazoline-2,4-diamine] | 50 to 128 (≈ 16.3 to 41.8 µg/mL) |  | 
41 | Fc1ccc(CNc2nc(NCC3CCCCC3)nc3ccccc23)cc1 [Compound 208, N^2-(Cyclohexylmethyl)-N^4-(4-fluorobenzyl)quinazoline-2,4-diamine] | 10 to 50 (≈ 3.64 to 18.2 µg/mL) |  | 
42 | Fc1ccc(CNc2nc(NCCN3CCCCC3)nc3ccccc23)cc1 [Compound 209, N^4-(4-Fluorobenzyl)-N^2-(2-(piperidin-1-yl)ethyl)quinazoline-2,4-diamine hydrochloride] | 50 to 128 |  | 
43 | Nc1nc(N2CCCCC2)nc2ccccc12 [compound 1, 2-(Piperidin-1-yl)quinazolin-4-amine, reference compound] |  |  | MABA (TB growth inhibition, colourimetric assay) [1, 3]: −
44 | Nc1nc(NCc2ccccc2)c2ccccc2n1 [compound 3, N^4-Benzylquinazoline-2,4-diamine, reference compound] | 50 to 128 (≈ 12.5 to 32 µg/mL) |  | 
